Reference: PubChem BioAssay (NCI)
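These data come from cells grown in 96-well plates and exposed to compound for 48 hours at five concentrations. TGI: total growth inhibition.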

Experiments:
Test in all cases: NCI anticancer screen, dose series, 48 h
SK-MEL-2 melanoma = tested on: SK-MEL-2 melanoma
TK-10 renal = tested on: TK-10 renal
MOLT-4 leukemia = tested on: MOLT-4 leukemia
SK-OV-3 ovarian = tested on: SK-OV-3 ovarian
786-0 renal = tested on: 786-0 renal
T-47D breast = tested on: T-47D breast
LOX IMVI melanoma = tested on: LOX IMVI melanoma
OVCAR-3 ovarian = tested on: OVCAR-3 ovarian
SNB-19 CNS = tested on: SNB-19 CNS
NCI-H460 lung = tested on: NCI-H460 lung
SF-295 CNS = tested on: SF-295 CNS
CCRF-CEM leukemia = tested on: CCRF-CEM leukemia
A498 renal = tested on: A498 renal
OVCAR-4 ovarian = tested on: OVCAR-4 ovarian
IGROV1 ovarian = tested on: IGROV1 ovarian
NCI-H522 lung = tested on: NCI-H522 lung
UACC-257 melanoma = tested on: UACC-257 melanoma
U251 CNS = tested on: U251 CNS
EKVX NSCLC = tested on: EKVX NSCLC
COLO 205 colon = tested on: COLO 205 colon

SMILES	TGI (SK-MEL-2 melanoma) [µM]	TGI (TK-10 renal) [µM]	TGI (MOLT-4 leukemia) [µM]	TGI (SK-OV-3 ovarian) [µM]	TGI (786-0 renal) [µM]	TGI (T-47D breast) [µM]	TGI (LOX IMVI melanoma) [µM]	TGI (OVCAR-3 ovarian) [µM]	TGI (SNB-19 CNS) [µM]	TGI (NCI-H460 lung) [µM]	TGI (SF-295 CNS) [µM]	TGI (CCRF-CEM leukemia) [µM]	TGI (A498 renal) [µM]	TGI (OVCAR-4 ovarian) [µM]	TGI (IGROV1 ovarian) [µM]	TGI (NCI-H522 lung) [µM]	TGI (UACC-257 melanoma) [µM]	TGI (U251 CNS) [µM]	TGI (EKVX NSCLC) [µM]	TGI (COLO 205 colon) [µM]
O=C(NC1=NC2C=CC([N+](=O)[O-])=CC2S1)C(=O)Nn1c(=S)[nH]c2ccccc2c1=O (stereo not drawn)	> 100	> 100	> 100	> 100	> 100	> 100	> 100	> 100	72.7	> 100	> 100	> 100	> 100	> 100	> 100	> 100	> 100	> 100	> 100	
O=S(CCCl)c1c2ccccc2nc2ccccc12 (stereo not drawn)	> 100	> 100	> 100	> 100	> 100	> 100	> 100	> 100	> 100	> 100	> 100	> 100	> 100	> 100	> 100	35.6	> 100	> 100	> 100	> 100
OC1CN2CCS[C@H]2C(O)C1O (stereo partly drawn)	> 100	> 100	> 100	> 100	> 100	> 100	> 100	> 100	> 100	> 100	> 100	> 100	> 100	> 100	> 100	> 100	> 100	> 100	> 100	> 100
O=c1[nH]nc(Cc2ccc(Cl)cc2)n1/N=C\c1ccc(/C=N/n2c(Cc3ccc(Cl)cc3)n[nH]c2=O)cc1	> 100	> 100	> 100		53.1	> 100	> 100	> 100	> 100	> 100	> 100	> 100	> 100	> 100	> 100	> 100	> 100	97.9	> 100	> 100
Cc1cc(C)c2c(=O)n(CN3CCC(O)(c4ccccc4)CC3)sc2n1	> 100	29.8	76.3	> 100	30.8	> 100	> 100	> 100	> 100	95.3	> 100	> 100	> 100	81.4	> 100	24.2		> 100	81.7	> 100
COc1cc2c(c3c1c(=O)c1ccccc1n3C)C=CC1(CCCCC1)O2	9.69	> 10	> 10	> 10	> 10	> 10	> 10	> 10	> 10	> 10	4.7	> 10	> 9.61	> 10	> 10	> 10	> 10	> 10	> 10	> 10
O=C(CCCl)NNC1=NCCN1	> 100	> 100	> 100	> 100	> 100	> 100	> 100	> 100	> 100	> 100	> 100	> 100	> 100	> 100	> 100	> 100	> 100	> 100	> 100	> 100
NCCCN1CCN(CC(=O)O)CCN(CCCN)CCN(CC(=O)O)CC1	> 76.1	> 100	> 100	> 100	> 85.3	> 100	> 100	> 100	> 100	> 100	> 100	> 100	> 100	> 100	> 100	> 84.2	> 100	> 100	> 100	> 100
CN(CCCCN(C)CCc1ccc(Cl)c(Cl)c1)CCCCN1CCCC1	3.12	2.99		6.05	2.55	3.94	1.66	4.34	5.23	2.98	3.54	0.39	3.14	3.66	5.57	2.32	3.06	1.97	3.54	3.8
O=c1[nH]nc(Cc2ccc(Cl)cc2)n1/N=C\CC/C=N\n1c(Cc2ccc(Cl)cc2)n[nH]c1=O	> 69.7	> 100	> 96.5	> 100	> 53.5	> 100	> 100	> 100	> 92.8	> 100	> 78.1	> 88.9	> 100	> 100	41.3	> 100	> 100	46	78.5	> 100
COc1ccccc1Cn1nc(OC)c2cc([N+](=O)[O-])ccc21	> 57.5	60.8	> 100		> 84.7	> 100	> 100	> 100	41.5	> 100	20	> 100	60.3	> 100	> 100	> 81.3	> 100	29	> 73.6	> 100
COc1ccc2[nH]c3c(c2c1)COc1ccccc1C3=O	> 100	> 100	> 100	> 100	> 100	> 100	> 100	> 100	> 100	> 100	> 100	> 100	> 100	> 100	> 100	> 100	> 100	> 100	> 100	> 100
O=c1ccn2n1CCCCC2	> 100	> 100	> 100	> 100	> 100	> 100	> 100	> 100	> 100	> 100	> 100	> 100	> 100	> 100	> 100	> 100	> 100	> 100	> 100	> 100
Oc1c(C2=N[C@H]3CCCC[C@@H]3N2)ccc2ccccc12	> 100	> 100	> 100	> 100	> 100	> 100	> 100	> 100	> 96.4	> 100		> 100	> 100	> 100	> 100	> 100	> 100	> 100	> 100	> 100
CN(C)c1ccc(/C=C(\NC(=O)c2ccccc2)C(=O)NC(CCC(=O)O)C(=O)O)cc1 (stereo not drawn)	> 100	> 100	> 100	> 100	> 100	> 100	> 100	> 100	> 100	> 100	> 100	> 100	> 100	> 100	> 100	> 100	> 100	> 100	> 100	> 100
COC(=O)C1(Cc2ccccc2)Cc2ccc3c(c2C1=O)CCC3 (stereo not drawn)	41.5	> 84	69.5	> 100	> 100	> 100	> 64	> 100	> 100	> 100	> 100	> 89.5	> 89.8	> 92.8	> 100	75.5	99.1	> 100	> 75.2	> 62.5
CC(CO)C1=CC(C#CCOCc2ccccc2)N(C(=O)Oc2ccccc2)c2ccccc21 (stereo not drawn)	> 100	> 100	> 100	> 100	> 100	> 100	> 100	88.2	> 100	91.8	71.9	> 100	24.2	20.7	> 100	37.3	88.2	> 100	73	28.4
O=C(O)CC/C(=N\Nc1nsc2ccccc12)c1ccc(Cl)cc1	> 100	> 67.6	73.5	89.6	> 100	> 100	25.7	47.2	> 100	> 81.5	> 100	> 54.6	99.4	> 80.2	> 100	> 100	> 67.4	82.4	> 100	> 100
CCOC(=O)CCC(NC(=O)c1ccc(OCc2nc3ccccc3n3cccc23)cc1)C(=O)OCC (stereo not drawn)	> 100	> 100	> 100	> 100	> 100	> 100	> 100	> 100	> 100	> 100	> 100	> 100	> 100	> 100	> 100	69.3	> 100	> 100	> 100	> 100
COc1cc([C@@H]2c3[nH]c4ccccc4c3C(Nc3ccc([N+](=O)[O-])cc3)[C@H]3COC(=O)N23)cc(OC)c1O (stereo partly drawn)	> 72.7	0.754	0.289	2.31	0.665	> 23.2	0.297	1.98	0.698	1.44	1.02	0.325	0.653	5.91	2.86	1.97	11.6	1.4	17	2.86
CNC(=O)CCCN(C)C(=O)CCCCC(=O)N(C)C	> 100	> 100	> 100	> 100	> 100	> 100	> 100	> 100	> 100	> 100	> 100	> 100	> 100	> 100	> 100	> 100	> 100	> 100	> 100	> 100
CN(C)c1ccc(/C=C(\NC(=O)c2ccccc2)C2NC(Cc3c[nH]c4ccccc34)C(=O)O2)cc1 (stereo not drawn)	> 100	> 38.7	> 100	> 100	> 100	> 100	> 54.3	> 100	> 100	> 74.5	> 100	> 100	> 100	> 100	> 100	24.4	> 100	> 100	> 100	> 39.3
O=c1oc2ccc3ccccc3c2cc1-c1nc2ccccc2o1	60.1	> 100	> 79	> 54.4	42.2	39.7	32.8	32.4	> 46.6	> 100	> 59.3	> 100	> 77.5	90.4	30	59.4	99.2	53.1	> 56.2	> 100
CCOC(=O)NC(NC(C)CC)(C(F)(F)F)C(F)(F)F (stereo not drawn)	> 100	> 100	> 100		> 100	> 100	> 100	> 100	> 100	> 100	> 100	> 100	> 100	> 100	> 100	> 100	> 100	> 100	> 100	> 100
